Earlier results in article PMC9006653 (The Journal of Biological Chemistry, 2022).

Legend:
[1] = system: 10 human tumor cell lines

cycloviolacin O2 [cyO2]
fold more active than 11 Möbius cyclotides (five cancer cell lines): over ten-fold | fold more potent (cytotoxicity) compared to varv A and varv F [1]: over 20 fold
